Columns and labels:
[1] = target: B1 bradykinin receptor (Homo sapiens) (UniProt P46663); assay: Inhibition of Bradykinin B1 at 10 µM in the Eurofins-Panlabs radioligand binding assay (Eurofins_assay_212510); details: Compound concentration 10.0 uM
[2] = target: Voltage-dependent N-type calcium channel subunit alpha-1B (Homo sapiens) (UniProt Q00975); assay: Inhibition of Calcium Channel N-Type at 10 µM in the Eurofins-Panlabs radioligand binding assay (Eurofins_assay_216000); details: Rattus norvegicus; Compound concentration 10.0 uM
[3] = target: T1, D(4) dopamine receptor (Homo sapiens) (UniProt P21917); assay: Inhibition of Dopamine D4.2 at 10 µM in the Eurofins-Panlabs radioligand binding assay (Eurofins_assay_219900); set-up: ligand concentration 0.5 nM; details: Compound concentration 10.0 uM
T1 sequence (whole entry): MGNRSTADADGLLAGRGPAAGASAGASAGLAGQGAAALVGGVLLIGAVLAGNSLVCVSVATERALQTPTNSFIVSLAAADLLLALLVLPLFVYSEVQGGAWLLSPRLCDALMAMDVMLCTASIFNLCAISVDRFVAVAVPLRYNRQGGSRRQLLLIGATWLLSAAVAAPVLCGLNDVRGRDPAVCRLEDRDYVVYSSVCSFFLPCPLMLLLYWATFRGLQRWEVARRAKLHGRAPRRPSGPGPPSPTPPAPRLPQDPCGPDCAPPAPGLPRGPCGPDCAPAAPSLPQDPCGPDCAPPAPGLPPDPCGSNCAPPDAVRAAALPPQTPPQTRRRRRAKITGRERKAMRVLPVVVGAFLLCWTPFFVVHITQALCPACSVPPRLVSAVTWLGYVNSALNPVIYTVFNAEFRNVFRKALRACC

Rattus norvegicus [4] = species: Rattus norvegicus; assay: Inhibition of Imidazoline I2, Central at 10 µM in the Eurofins-Panlabs radioligand binding assay (Eurofins_assay_241000); set-up: ligand concentration 2 nM; details: Compound concentration 10.0 uM
[5] = target: ATP-sensitive inward rectifier potassium channel 11 (Cricetulus griseus) (UniProt A0A3L7HHE1); assay: Inhibition of Potassium Channel [KATP] at 10 µM in the Eurofins-Panlabs radioligand binding assay (Eurofins_assay_265600); details: Cricetinae; Compound concentration 10.0 uM
[6] = target: voltage-gated sodium channel, site 2 (Rattus norvegicus, UniProt F1LQQ7+O08562+O88420+O88457+P04774+P04775+P08104+P15389+P15390+Q62968); assay: Inhibition of Sodium Channel, Site 2 at 10 µM in the Eurofins-Panlabs radioligand binding assay (Eurofins_assay_279510); type: protein assay; set-up: ligand concentration 5 nM, non-specific ligand with concentration 100 µM Veratridine, incubation time 60 min, incubation temperature 37 °C; details: male, Wistar, rat whole brain (except cerebellum) membranes, probe [3H] Batrachotoxinin, 5 nM, compound concentration 10 uM
[7] = target: Substance-P receptor (Homo sapiens) (UniProt P25103); assay: Tachykinin NK1 Eurofins-Panlabs radioligand binding assay; details: Compound concentration 10.0 uM
Rattus norvegicus [8] = species: Rattus norvegicus; assay: Potassium Channel [SKCA] Eurofins-Panlabs radioligand binding assay; set-up: ligand concentration 0.005 nM; details: Compound concentration 10.0 uM
Rattus norvegicus [9] = species: Rattus norvegicus; assay: Serotonin (5-Hydroxytryptamine) 5-HT1, Non-Selective Eurofins-Panlabs radioligand binding assay; type: protein assay; details: Compound concentration 10.0 uM
Homo sapiens = species: Homo sapiens; assay: Chemokine CXCR1/2 (IL-8, Non-selective) Eurofins-Panlabs radioligand binding assay; details: Compound concentration 10.0 uM
[10] = target: Gamma-aminobutyric acid type B receptor subunit 1 (Homo sapiens) (UniProt Q9UBS5); assay: GABAB1B Eurofins-Panlabs radioligand binding assay; details: Compound concentration 10.0 uM
[11] = target: Gamma-aminobutyric acid type B receptor subunit 1 (Homo sapiens) (UniProt Q9UBS5); assay: GABAB1A Eurofins-Panlabs radioligand binding assay; details: Compound concentration 10.0 uM
Rattus norvegicus [12] = species: Rattus norvegicus; assay: Opiate, Non-Selective Eurofins-Panlabs radioligand binding assay; set-up: ligand concentration 1 nM; details: Compound concentration 10.0 uM
[13] = target: 5-hydroxytryptamine receptor 1A (Homo sapiens) (UniProt P08908); details: Compound concentration 10.0 uM
[14] = target: 5-hydroxytryptamine receptor 2B (Homo sapiens) (UniProt P41595); details: Compound concentration 10.0 uM
[15] = target: D(1A) dopamine receptor (Homo sapiens) (UniProt P21728); details: Compound concentration 10.0 uM
[16] = target: T1, D(4) dopamine receptor (Homo sapiens); details: Compound concentration 10.0 uM
[17] = target: D(1B) dopamine receptor (Homo sapiens) (UniProt P21918); details: Compound concentration 10.0 uM
[18] = target: T2, Sodium-dependent dopamine transporter (Homo sapiens, UniProt Q01959); details: Compound concentration 10.0 uM
[19] = target: Histamine H2 receptor (Homo sapiens) (UniProt P25021); details: Compound concentration 10.0 uM
[20] = target: Histamine H4 receptor (Homo sapiens) (UniProt Q9H3N8); details: Compound concentration 10.0 uM
[21] = target: Alpha-2B adrenergic receptor (Homo sapiens) (UniProt P18089); details: Compound concentration 10.0 uM
[22] = target: Beta-1 adrenergic receptor (Homo sapiens) (UniProt P08588); details: Compound concentration 10.0 uM
[23] = target: Muscarinic acetylcholine receptor M5 (Homo sapiens) (UniProt P08912); details: Compound concentration 10.0 uM
[24] = target: T3, GABA-A receptor; anion channel (Rattus norvegicus) (UniProt O09028+P15431+P18506+P18508+P19969+P20236+P23574+P23576+P28471+P28473+P30191+P62813+P63079+P63138+Q91ZM7+Q9ES14); details: Compound concentration 10.0 uM
[25] = target: Sigma non-opioid intracellular receptor 1 (Homo sapiens) (UniProt Q99720); details: Compound concentration 10.0 uM
[26] = target: Adenosine receptor A1 (Homo sapiens) (UniProt P30542); details: Compound concentration 10.0 uM
[27] = target: Beta-1 adrenergic receptor (Homo sapiens) (UniProt P08588); details: Compound concentration 10.0 uM; remark: listed apart in the source
[28] = target: Histamine H1 receptor (Homo sapiens) (UniProt P35367); details: Compound concentration 10.0 uM
[29] = target: Histamine H2 receptor (Homo sapiens) (UniProt P25021); details: Compound concentration 10.0 uM; remark: listed apart in the source
[30] = target: T2, Sodium-dependent dopamine transporter; details: Compound concentration 10.0 uM; remark: listed apart in the source
[31] = target: Beta-3 adrenergic receptor (Homo sapiens) (UniProt P13945); details: Compound concentration 10.0 uM
[32] = target: T3, GABA-A receptor; anion channel (Rattus norvegicus); details: Compound concentration 10.0 uM; remark: listed apart in the source
[33] = target: Insulin receptor (Homo sapiens) (UniProt P06213); details: Rattus norvegicus; Compound concentration 10.0 uM
[34] = target: Growth hormone secretagogue receptor type 1 (Homo sapiens) (UniProt Q92847); details: Compound concentration 10.0 uM

Sequence of Histamine H2 receptor (Homo sapiens) (P25021 whole entry): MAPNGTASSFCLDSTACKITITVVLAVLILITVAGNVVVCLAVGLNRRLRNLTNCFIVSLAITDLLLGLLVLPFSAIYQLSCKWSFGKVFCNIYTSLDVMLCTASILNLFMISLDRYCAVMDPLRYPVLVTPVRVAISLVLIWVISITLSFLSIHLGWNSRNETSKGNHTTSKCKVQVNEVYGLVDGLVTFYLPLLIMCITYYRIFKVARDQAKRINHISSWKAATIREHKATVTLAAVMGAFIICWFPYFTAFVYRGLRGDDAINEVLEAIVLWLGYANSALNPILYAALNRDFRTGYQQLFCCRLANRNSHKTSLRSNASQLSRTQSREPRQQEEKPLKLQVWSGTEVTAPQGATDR
T2 sequence (Q01959 whole entry): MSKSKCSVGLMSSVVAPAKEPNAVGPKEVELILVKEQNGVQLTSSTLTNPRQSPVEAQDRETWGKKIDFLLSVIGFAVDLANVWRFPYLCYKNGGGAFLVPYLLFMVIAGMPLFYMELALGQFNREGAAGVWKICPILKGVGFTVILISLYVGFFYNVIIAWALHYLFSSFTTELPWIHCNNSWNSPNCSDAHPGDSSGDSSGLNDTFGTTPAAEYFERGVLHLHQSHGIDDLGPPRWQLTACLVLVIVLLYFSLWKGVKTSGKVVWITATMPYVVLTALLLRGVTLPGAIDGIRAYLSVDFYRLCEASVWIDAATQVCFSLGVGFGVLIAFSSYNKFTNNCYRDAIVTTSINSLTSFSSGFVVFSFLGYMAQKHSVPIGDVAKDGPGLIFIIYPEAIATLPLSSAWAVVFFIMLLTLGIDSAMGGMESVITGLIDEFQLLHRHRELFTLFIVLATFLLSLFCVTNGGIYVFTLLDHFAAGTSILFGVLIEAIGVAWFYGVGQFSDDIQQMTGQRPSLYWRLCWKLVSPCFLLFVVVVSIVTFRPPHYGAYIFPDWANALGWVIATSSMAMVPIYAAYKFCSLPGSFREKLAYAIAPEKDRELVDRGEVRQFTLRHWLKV
Sequence of Gamma-aminobutyric acid type B receptor subunit 1 (Homo sapiens) (Q9UBS5 whole entry): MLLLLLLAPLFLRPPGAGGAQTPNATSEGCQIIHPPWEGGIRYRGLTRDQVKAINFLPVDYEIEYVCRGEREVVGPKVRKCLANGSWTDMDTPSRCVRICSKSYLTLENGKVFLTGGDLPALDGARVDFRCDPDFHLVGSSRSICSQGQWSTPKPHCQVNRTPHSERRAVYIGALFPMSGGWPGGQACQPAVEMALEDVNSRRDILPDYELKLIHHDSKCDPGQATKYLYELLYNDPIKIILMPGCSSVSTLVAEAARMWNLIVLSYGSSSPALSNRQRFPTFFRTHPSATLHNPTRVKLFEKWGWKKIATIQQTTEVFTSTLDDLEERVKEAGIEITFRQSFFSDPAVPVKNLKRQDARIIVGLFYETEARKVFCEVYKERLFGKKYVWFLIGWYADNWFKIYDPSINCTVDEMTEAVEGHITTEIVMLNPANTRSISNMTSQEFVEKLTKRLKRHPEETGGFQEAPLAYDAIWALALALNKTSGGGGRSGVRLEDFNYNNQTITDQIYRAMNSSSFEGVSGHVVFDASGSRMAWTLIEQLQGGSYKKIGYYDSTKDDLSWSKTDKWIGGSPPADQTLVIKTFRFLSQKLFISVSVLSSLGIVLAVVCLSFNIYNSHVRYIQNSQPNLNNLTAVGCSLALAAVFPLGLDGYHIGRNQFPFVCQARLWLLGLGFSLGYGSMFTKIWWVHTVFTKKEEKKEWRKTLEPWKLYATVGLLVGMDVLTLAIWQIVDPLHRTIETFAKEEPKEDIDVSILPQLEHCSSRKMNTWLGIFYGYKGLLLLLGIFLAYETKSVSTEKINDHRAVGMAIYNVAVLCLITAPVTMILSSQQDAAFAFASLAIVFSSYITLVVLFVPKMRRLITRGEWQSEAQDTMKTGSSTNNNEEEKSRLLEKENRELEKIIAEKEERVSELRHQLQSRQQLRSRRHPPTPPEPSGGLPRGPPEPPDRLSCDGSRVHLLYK
Sequence of Beta-1 adrenergic receptor (Homo sapiens) (P08588 whole entry, looked up): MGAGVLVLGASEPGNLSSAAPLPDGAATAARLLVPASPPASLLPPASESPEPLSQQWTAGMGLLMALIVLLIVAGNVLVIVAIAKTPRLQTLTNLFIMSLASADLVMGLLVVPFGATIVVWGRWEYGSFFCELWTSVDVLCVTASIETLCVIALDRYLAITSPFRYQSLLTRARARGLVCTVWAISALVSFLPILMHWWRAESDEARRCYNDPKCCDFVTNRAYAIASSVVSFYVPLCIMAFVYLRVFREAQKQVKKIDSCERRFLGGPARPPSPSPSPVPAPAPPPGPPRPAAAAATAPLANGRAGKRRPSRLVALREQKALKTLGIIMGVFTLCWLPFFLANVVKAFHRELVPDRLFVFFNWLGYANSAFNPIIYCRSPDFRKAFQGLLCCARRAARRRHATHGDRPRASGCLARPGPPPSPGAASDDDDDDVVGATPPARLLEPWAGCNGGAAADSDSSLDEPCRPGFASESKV
Sequence of 5-hydroxytryptamine receptor 1A (Homo sapiens) (P08908 whole entry): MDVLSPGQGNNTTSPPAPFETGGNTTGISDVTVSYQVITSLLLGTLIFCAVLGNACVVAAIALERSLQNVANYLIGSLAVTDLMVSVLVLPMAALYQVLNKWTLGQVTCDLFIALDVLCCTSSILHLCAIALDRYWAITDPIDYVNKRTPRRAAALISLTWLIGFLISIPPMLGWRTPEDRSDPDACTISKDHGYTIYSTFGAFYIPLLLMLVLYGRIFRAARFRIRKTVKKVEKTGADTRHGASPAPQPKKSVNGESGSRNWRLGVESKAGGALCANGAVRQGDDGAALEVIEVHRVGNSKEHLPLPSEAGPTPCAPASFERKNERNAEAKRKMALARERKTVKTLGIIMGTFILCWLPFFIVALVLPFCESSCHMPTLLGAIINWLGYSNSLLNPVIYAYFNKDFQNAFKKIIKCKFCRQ
Sequence of 5-hydroxytryptamine receptor 2B (Homo sapiens) (P41595 whole entry): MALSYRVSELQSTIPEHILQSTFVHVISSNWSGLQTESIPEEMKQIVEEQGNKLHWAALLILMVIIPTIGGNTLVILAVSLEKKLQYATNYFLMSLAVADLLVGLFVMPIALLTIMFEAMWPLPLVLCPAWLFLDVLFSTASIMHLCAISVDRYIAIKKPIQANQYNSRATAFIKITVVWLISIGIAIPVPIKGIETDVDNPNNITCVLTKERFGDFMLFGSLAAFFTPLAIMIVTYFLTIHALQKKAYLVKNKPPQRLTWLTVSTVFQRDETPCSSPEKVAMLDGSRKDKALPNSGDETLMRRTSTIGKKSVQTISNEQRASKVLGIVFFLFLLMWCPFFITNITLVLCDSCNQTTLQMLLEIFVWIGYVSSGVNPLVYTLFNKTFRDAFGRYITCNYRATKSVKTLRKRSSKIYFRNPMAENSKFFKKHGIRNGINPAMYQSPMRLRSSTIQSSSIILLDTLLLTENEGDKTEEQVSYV
Sequence of Adenosine receptor A1 (Homo sapiens) (P30542 whole entry): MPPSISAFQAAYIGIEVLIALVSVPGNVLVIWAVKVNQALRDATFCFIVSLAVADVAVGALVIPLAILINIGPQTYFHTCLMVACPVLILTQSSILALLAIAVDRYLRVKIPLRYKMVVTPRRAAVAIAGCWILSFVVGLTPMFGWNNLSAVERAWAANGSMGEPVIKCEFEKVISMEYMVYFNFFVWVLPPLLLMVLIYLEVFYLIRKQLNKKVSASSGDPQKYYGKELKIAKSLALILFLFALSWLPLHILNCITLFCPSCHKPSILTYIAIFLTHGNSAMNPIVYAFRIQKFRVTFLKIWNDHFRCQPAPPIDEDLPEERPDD
Sequence of D(1B) dopamine receptor (Homo sapiens) (P21918 whole entry): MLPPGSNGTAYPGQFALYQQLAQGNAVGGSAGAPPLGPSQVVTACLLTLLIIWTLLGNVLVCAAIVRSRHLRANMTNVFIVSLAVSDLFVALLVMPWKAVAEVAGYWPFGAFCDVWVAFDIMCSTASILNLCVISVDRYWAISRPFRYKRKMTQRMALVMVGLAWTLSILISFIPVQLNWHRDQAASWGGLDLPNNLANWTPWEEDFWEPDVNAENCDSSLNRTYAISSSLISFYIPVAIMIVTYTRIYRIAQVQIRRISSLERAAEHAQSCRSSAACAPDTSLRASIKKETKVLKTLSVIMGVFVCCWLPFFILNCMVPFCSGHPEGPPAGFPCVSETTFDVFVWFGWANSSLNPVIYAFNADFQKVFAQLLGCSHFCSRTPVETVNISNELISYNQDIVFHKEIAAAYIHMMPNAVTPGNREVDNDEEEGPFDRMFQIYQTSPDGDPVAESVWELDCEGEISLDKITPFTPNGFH
Sequence of D(1A) dopamine receptor (Homo sapiens) (P21728 whole entry): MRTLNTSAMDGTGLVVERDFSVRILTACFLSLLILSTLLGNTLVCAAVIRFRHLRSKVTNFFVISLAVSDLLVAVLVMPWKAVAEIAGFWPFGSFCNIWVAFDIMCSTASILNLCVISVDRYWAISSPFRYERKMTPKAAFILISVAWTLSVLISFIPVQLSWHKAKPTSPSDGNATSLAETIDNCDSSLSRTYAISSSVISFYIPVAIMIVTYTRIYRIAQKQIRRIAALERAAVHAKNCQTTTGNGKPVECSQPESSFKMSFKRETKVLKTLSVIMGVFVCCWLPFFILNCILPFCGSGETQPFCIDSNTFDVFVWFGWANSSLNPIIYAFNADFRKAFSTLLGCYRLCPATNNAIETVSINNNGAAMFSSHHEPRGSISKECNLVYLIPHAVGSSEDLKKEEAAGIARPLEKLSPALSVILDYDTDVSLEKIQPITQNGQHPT
Sequence of ATP-sensitive inward rectifier potassium channel 11 (Cricetulus griseus) (A0A3L7HHE1 as listed by the source): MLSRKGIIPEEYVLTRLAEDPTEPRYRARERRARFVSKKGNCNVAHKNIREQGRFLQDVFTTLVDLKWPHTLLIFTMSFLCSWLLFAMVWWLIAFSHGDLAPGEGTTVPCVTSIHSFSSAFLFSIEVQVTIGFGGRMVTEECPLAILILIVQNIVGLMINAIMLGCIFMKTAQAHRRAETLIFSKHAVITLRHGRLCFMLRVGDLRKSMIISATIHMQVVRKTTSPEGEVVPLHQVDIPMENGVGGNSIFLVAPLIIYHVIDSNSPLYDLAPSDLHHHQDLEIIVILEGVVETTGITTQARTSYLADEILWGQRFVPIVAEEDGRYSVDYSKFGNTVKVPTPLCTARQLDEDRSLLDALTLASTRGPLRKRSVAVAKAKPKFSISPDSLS

With `Cc1cc(OC2CCS(=O)(=O)CC2)cc(C)c1-c1cccc(COc2ccc(CCC(=O)O)c(F)c2)c1` the inhibition [1] was 14%, the inhibition [2] was -4% and the inhibition [3] was 9%. For the same molecule, the inhibition (Rattus norvegicus [4]) was -7%, the inhibition [5] was 19% and the inhibition at 60 min, 10 µM [6] was 6% (not active). The inhibition [7] was 17%, the inhibition (Rattus norvegicus [8]) was -5% and the inhibition (Rattus norvegicus [9]) was 16%. The inhibition (Homo sapiens) was 3%, the inhibition [10] was 1% and the inhibition [11] was 7%. The inhibition (Rattus norvegicus [12]) was -8%, the inhibition [13] was 1.37% and the inhibition [14] was 21.5%. For the same molecule, the inhibition [15] was 13.7%, the inhibition [16] was 85.4% and the inhibition [17] was 32.2%. For the same molecule, the inhibition [18] was 53.7%, the inhibition [19] was 5.95% and the inhibition [20] was 10.8%. It also gave an inhibition [21] of 13.1%, an inhibition [22] of 14.4% and an inhibition [23] of 20.4%. It also gave an inhibition [24] of 23.7%, an inhibition [25] of 8.9% and an inhibition [26] of -1%. For the same molecule, the inhibition [27] was 5%, the inhibition [28] was -7% and the inhibition [29] was 26%. The inhibition [30] was 5%, the inhibition [31] was 15% and the inhibition [32] was 21%. For the same molecule, the inhibition [33] was 7% and the inhibition [34] was 2%.

In the case of `Cc1cc(OC2CCS(=O)(=O)CC2)cc(C)c1-c1cccc(COc2ccc(C(=O)O)c(F)c2)c1`, the inhibition [1] is reported as 19%, the inhibition [2] is reported as -9% and the inhibition [3] is reported as 6%. The inhibition (Rattus norvegicus [4]) was 3%, the inhibition [5] was -3% and the inhibition at 60 min, 10 µM [6] was -5% (not active). For the same molecule, the inhibition [7] was 3%, the inhibition (Rattus norvegicus [8]) was 1% and the inhibition (Rattus norvegicus [9]) was -9%. For the same molecule, the inhibition (Homo sapiens) was 4%, the inhibition [10] was 10% and the inhibition [11] was 20%. The inhibition (Rattus norvegicus [12]) was 3%, the inhibition [13] was -6.09% and the inhibition [14] was 3%. The inhibition [15] was 20.9%, the inhibition [16] was 7.27% and the inhibition [17] was 17.5%. It also gave an inhibition [18] of 42.2%, an inhibition [19] of 7.66% and an inhibition [20] of 17.4%. The inhibition [21] was -0.21%, the inhibition [22] was -0.49% and the inhibition [23] was -4.74%. For the same molecule, the inhibition [24] was 19.5%, the inhibition [25] was 16.7% and the inhibition [26] was -4%. For the same molecule, the inhibition [27] was -4%, the inhibition [28] was 2% and the inhibition [29] was 2%. For the same molecule, the inhibition [30] was -8%, the inhibition [31] was -3% and the inhibition [32] was 14%. It also gave an inhibition [33] of 0% and an inhibition [34] of -1%.
